Measurements from US5015631A, “Repairing agent for cells and tissues” (MECT Corporation, priority 1987, dated 1991).

Tested on: mice
Test: Simple acute toxicity test by intravenous injection in mice
Format: in vivo, Male ddy mice
Details: for Final death rate / Number of death with the elapse of time: 3 mice
Description: Simple acute toxicity test:
Simple acute toxicity tests of the materials were conducted by intraveous injections for the mice as follows:
Lithium, potassium, barium and magnesium N-acetylneuraminates (products of MECT Corporation) were used.
Weight of the animal in the initial stage of the test: 17.7 to 21.1 g
Number of mice for each level: 3
(3) Room temperature: 23±1° C., humidity: 55±7%
(4) Route of administration: intravenous injection
The material was dissolved in the physiological saline. The concentration of the dose solution was adjusted so that 0.2 ml of the dose solution was administered per 20 g of the body weight of the mice. The solution was given to a tail of each mouse by the intravenous injection. The dose was 500, 1000 or 2000 mg/kg.
The general symptoms and death were observed from immediately after the administration to seven days after the administration.

CC(=O)N[C@H]1[C@H]([C@H](O)[C@H](O)CO)OC(O)(C(=O)[O-])C[C@@H]1O.[K+] (stereo partly drawn) [Potassium N-acetylneuraminate]
0: Number of death with the elapse of time (500 mg/kg i.v., 1 hr) | Number of death with the elapse of time (500 mg/kg i.v., 3 hrs) | Number of death with the elapse of time (500 mg/kg i.v., 6 hrs) | Number of death with the elapse of time (500 mg/kg i.v., 24 hrs) | Number of death with the elapse of time (500 mg/kg i.v., 2 days) | Number of death with the elapse of time (500 mg/kg i.v., 3 days) | Number of death with the elapse of time (500 mg/kg i.v., 4 days) | Number of death with the elapse of time (500 mg/kg i.v., 5 days) | Number of death with the elapse of time (500 mg/kg i.v., 6 days) | Number of death with the elapse of time (500 mg/kg i.v., 7 days) | Number of death with the elapse of time (1000 mg/kg i.v., 3 hrs) | Number of death with the elapse of time (1000 mg/kg i.v., 6 hrs) | Number of death with the elapse of time (1000 mg/kg i.v., 24 hrs) | Number of death with the elapse of time (1000 mg/kg i.v., 2 days) | Number of death with the elapse of time (1000 mg/kg i.v., 3 days) | Number of death with the elapse of time (1000 mg/kg i.v., 4 days) | Number of death with the elapse of time (1000 mg/kg i.v., 5 days) | Number of death with the elapse of time (1000 mg/kg i.v., 6 days) | Number of death with the elapse of time (1000 mg/kg i.v., 7 days) | Number of death with the elapse of time (2000 mg/kg i.v., 3 hrs) | Number of death with the elapse of time (2000 mg/kg i.v., 6 hrs) | Number of death with the elapse of time (2000 mg/kg i.v., 24 hrs) | Number of death with the elapse of time (2000 mg/kg i.v., 2 days) | Number of death with the elapse of time (2000 mg/kg i.v., 3 days) | Number of death with the elapse of time (2000 mg/kg i.v., 4 days) | Number of death with the elapse of time (2000 mg/kg i.v., 5 days) | Number of death with the elapse of time (2000 mg/kg i.v., 6 days) | Number of death with the elapse of time (2000 mg/kg i.v., 7 days)
3: Number of death with the elapse of time (1000 mg/kg i.v., 1 hr) | Number of death with the elapse of time (2000 mg/kg i.v., 1 hr)
all of the three mice died: Death (1000 mg/kg or 2000 mg/kg i.v.)
3/3: Final death rate (1000 mg/kg i.v.) | Final death rate (2000 mg/kg i.v.)
0/3: Final death rate (500 mg/kg i.v.)

CC(=O)N[C@H]1[C@H]([C@H](O)[C@H](O)CO)OC(O)(C(=O)O)C[C@@H]1O (stereo partly drawn) [Magnesium N-acetylneuraminate]
0: Number of death with the elapse of time (500 mg/kg i.v., 1 hr) | Number of death with the elapse of time (500 mg/kg i.v., 3 hrs) | Number of death with the elapse of time (500 mg/kg i.v., 6 hrs) | Number of death with the elapse of time (500 mg/kg i.v., 24 hrs) | Number of death with the elapse of time (500 mg/kg i.v., 2 days) | Number of death with the elapse of time (500 mg/kg i.v., 3 days) | Number of death with the elapse of time (500 mg/kg i.v., 4 days) | Number of death with the elapse of time (500 mg/kg i.v., 5 days) | Number of death with the elapse of time (500 mg/kg i.v., 6 days) | Number of death with the elapse of time (500 mg/kg i.v., 7 days)
0/3: Final death rate (500 mg/kg i.v.)

CC(=O)N[C@H]1[C@H]([C@H](O)[C@H](O)CO)OC(O)(C(=O)[O-])C[C@@H]1O.[Li+] (stereo partly drawn) [Lithium N-acetylneuraminate]
0/3: Final death rate (500 mg/kg i.v.) | Final death rate (1000 mg/kg i.v.) | Final death rate (2000 mg/kg i.v.)
0: Number of death with the elapse of time (500 mg/kg i.v., 1 hr) | Number of death with the elapse of time (500 mg/kg i.v., 3 hrs) | Number of death with the elapse of time (500 mg/kg i.v., 6 hrs) | Number of death with the elapse of time (500 mg/kg i.v., 24 hrs) | Number of death with the elapse of time (500 mg/kg i.v., 2 days) | Number of death with the elapse of time (500 mg/kg i.v., 3 days) | Number of death with the elapse of time (500 mg/kg i.v., 4 days) | Number of death with the elapse of time (500 mg/kg i.v., 5 days) | Number of death with the elapse of time (500 mg/kg i.v., 6 days) | Number of death with the elapse of time (500 mg/kg i.v., 7 days) | Number of death with the elapse of time (1000 mg/kg i.v., 1 hr) | Number of death with the elapse of time (1000 mg/kg i.v., 3 hrs) | Number of death with the elapse of time (1000 mg/kg i.v., 6 hrs) | Number of death with the elapse of time (1000 mg/kg i.v., 24 hrs) | Number of death with the elapse of time (1000 mg/kg i.v., 2 days) | Number of death with the elapse of time (1000 mg/kg i.v., 3 days) | Number of death with the elapse of time (1000 mg/kg i.v., 4 days) | Number of death with the elapse of time (1000 mg/kg i.v., 5 days) | Number of death with the elapse of time (1000 mg/kg i.v., 6 days) | Number of death with the elapse of time (1000 mg/kg i.v., 7 days) | Number of death with the elapse of time (2000 mg/kg i.v., 1 hr) | Number of death with the elapse of time (2000 mg/kg i.v., 3 hrs) | Number of death with the elapse of time (2000 mg/kg i.v., 6 hrs) | Number of death with the elapse of time (2000 mg/kg i.v., 24 hrs) | Number of death with the elapse of time (2000 mg/kg i.v., 2 days) | Number of death with the elapse of time (2000 mg/kg i.v., 3 days) | Number of death with the elapse of time (2000 mg/kg i.v., 4 days) | Number of death with the elapse of time (2000 mg/kg i.v., 5 days) | Number of death with the elapse of time (2000 mg/kg i.v., 6 days) | Number of death with the elapse of time (2000 mg/kg i.v., 7 days)
